Key:
[1] = target: T1, α2 subtype containing GABA-A receptors (Homo sapiens, UniProt P18507+P47869); assay: Two-electrode voltage clamp electrophysiology in Xenopus oocytes, potentiation of GABA EC20 response, α2; assay type: cell-based; settings: 100 nM compound; for activation at 0.1 µM: read-out: Percentage of potentiation alpha2
T1 construct: expressed in transfected cells; host or cells: Xenopus laevis oocytes, cRNA injected
Procedure: (§1) Electrophysiology protocol: Oocytes were prepared from adult female Xenopus laevis frogs. cRNA encoding human α1, α2, α3, α5, β3 and γ2L GABAA receptor subunits was injected into the cytoplasm of stage 5 or 6 oocytes using the Robocyte Robot (Multi Channel Systems, Reutlingen, Germany). Two-electrode voltage clamp recordings were made in 96-well plates using the Robocyte Robot. Oocytes were impaled using recording heads with two glass electrodes containing 1.5 M potassium acetate and 0.5 M KCl and held at a membrane potential of −80 mV. Oocytes were continually perfused with a ND96 solution (96 mM NaCl, 2 mM KCl, 0.1 mM CaCl2, and 5 mM HEPES, pH 7.5) using a Gilson 222 XL Liquid Handler and Gilson Minipuls 3 Peristaltic Pump (Gilson Medical Electronics, Middleton, Wis., USA). The protocol consisted of three 20-s applications of GABA that gave a 20% of the maximum response (EC20: 60 μM) to allow for headroom to determine a baseline GABA response. To assess the potentiation, oocytes were first exposed to a single 1 μM chlordiazepoxide (CDP) as a potentiation standard. Oocytes with insufficient expression levels (currents below threshold) or insufficient γ2L subunit incorporation (judged by rapid desensitization upon GABA application, or by insufficient potentiation by CDP) were not included in analysis. Following this control application, a given oocyte was exposed to test compounds at 100 nM concentrations. Only one concentration of one compound was tested per oocyte. […] One skilled in the art will recognize that subtypes contribute to the effects of GABA-A modulators. Such that compounds favoring different subtypes can have different therapeutic effects. The magnitude of modulation, for example, partial modulators can influence the effects in vivo. “++” indicates a greater modulation that “+” so that at any given subtype “++” inducates a greater amount of modulation for that subtype. In some embodiments, modulation favoring alpha 1 relative to alpha2 and/or alpha 3 can have sedative hypnotic effects. In other embodiments, compounds with reduced selectivity of alpha 1 can express anxiolytic effects with less sedation. Compounds with selectivity for alpha 5 can have memory/cognition enhancing effects.

[2] = tested on: central benzodiazepine receptors; assay: Central benzodiazepine receptor binding (test of Speth et al.); settings: 1000 nM of the compound
How it was run: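 Radioligand binding by the Speth et al. method. Specific binding is total minus nonspecific binding, the latter measured with excess unlabelled ligand. Compounds screened at 1.0E-09, 1.0E-07 and 1.0E-05 M in single determination; values given as percent inhibition at 1000 nM compound.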

[3] = target: T2, α1 subtype containing GABA-A receptors (Homo sapiens, UniProt P14867+P18507); assay: Two-electrode voltage clamp electrophysiology in Xenopus oocytes, potentiation of GABA EC20 response, α1; assay type: cell-based; settings: 100 nM compound; for activation at 0.1 µM: read-out: Percentage of potentiation alpha1
T2 construct: expressed in transfected cells; host or cells: Xenopus laevis oocytes, cRNA injected
T2 sequence (P14867 28-456): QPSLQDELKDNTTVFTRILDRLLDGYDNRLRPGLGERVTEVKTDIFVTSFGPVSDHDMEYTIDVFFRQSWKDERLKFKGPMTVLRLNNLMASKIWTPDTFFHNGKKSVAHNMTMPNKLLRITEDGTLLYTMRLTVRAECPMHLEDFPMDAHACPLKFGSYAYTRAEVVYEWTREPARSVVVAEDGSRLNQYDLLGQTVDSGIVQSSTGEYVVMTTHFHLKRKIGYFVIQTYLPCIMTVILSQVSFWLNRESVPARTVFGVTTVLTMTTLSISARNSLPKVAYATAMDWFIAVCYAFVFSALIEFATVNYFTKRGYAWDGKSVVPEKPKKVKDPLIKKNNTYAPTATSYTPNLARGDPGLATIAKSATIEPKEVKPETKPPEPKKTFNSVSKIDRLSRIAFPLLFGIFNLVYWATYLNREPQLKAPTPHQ
T2 sequence (P28472 26-473 partner): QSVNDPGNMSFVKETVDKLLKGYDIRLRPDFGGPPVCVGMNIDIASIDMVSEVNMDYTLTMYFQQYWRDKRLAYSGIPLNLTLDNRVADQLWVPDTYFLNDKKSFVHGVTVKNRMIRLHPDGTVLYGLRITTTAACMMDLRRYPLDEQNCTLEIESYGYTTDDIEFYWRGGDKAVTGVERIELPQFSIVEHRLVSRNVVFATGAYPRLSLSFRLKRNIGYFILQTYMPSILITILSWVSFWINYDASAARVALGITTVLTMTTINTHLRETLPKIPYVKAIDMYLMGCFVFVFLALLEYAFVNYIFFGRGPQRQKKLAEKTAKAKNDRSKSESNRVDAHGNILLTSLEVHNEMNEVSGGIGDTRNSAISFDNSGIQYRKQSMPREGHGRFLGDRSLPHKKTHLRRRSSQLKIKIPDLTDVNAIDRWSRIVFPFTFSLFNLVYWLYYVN
T2 sequence (P18507 40-475): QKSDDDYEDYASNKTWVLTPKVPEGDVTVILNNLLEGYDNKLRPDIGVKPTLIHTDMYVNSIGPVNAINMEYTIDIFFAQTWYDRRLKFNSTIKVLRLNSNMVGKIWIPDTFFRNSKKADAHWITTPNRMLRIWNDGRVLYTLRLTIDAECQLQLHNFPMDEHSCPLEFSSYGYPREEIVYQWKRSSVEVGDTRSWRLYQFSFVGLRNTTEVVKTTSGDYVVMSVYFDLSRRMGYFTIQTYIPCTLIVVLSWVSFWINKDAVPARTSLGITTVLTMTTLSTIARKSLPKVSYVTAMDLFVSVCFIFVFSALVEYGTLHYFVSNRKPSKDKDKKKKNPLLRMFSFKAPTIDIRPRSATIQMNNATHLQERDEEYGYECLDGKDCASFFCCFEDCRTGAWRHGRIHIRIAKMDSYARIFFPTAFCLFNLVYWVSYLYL
Procedure: as §1

T1 sequence (P47869 29-451): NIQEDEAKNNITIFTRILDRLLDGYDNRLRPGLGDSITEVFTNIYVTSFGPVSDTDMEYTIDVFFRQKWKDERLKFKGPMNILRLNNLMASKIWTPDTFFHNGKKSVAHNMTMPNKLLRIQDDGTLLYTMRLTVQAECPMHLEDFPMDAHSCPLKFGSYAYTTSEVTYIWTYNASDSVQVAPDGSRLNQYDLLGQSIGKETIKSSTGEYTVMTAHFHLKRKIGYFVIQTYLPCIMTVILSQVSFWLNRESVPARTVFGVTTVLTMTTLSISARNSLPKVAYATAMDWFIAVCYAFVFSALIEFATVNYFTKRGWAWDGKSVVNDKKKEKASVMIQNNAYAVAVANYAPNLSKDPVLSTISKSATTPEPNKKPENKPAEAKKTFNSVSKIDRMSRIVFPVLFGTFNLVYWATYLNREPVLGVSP
T1 sequence (P28472 26-473 partner): as the sequence (P28472 26-473 partner) above
T1 sequence (P18507 40-475): as the sequence (P18507 40-475) above

| Structure (SMILES) | Percentage of potentiation alpha2 [1] | % Inhibition at 1000 nM for CBZD [2] | Percentage of potentiation alpha1 [3] | activation at 0.1 µM [1] | activation at 0.1 µM [3] |
| --- | --- | --- | --- | --- | --- |
| Brc1ccc(-c2nc3ccccn3c2Cn2cncn2)cc1 [Compound 64, 3-((1H-1,2,4-triazol-1-yl)methyl)-2-(4-bromophenyl)H-imidazo[1,2-a]pyridine] | + (percentage of potentiation is greater than or equal to 10% but less than 50% in the presence of 100 nM of the compound) | ++ (percentage of inhibition of central BZD site binding is greater than 80% in the presence of 1000 nM of the compound) | + (percentage of potentiation is greater than or equal to 10% but less than 50% in the presence of 100 nM of the compound) | – | – |
| CCNCc1ccnc(NCc2c(-c3ccc(F)cc3)nc3ccc(C)cn23)n1 [Compound 196, 4-((ethylamino)methyl)-N-((2-(4-fluorophenyl)-6-methylimidazo[1,2-a]pyridin-3-yl)methyl)pyrimidin-2-amine] | – | ++ (percentage of inhibition of central BZD site binding is greater than 80% in the presence of 1000 nM of the compound) | – | ≥ 50% | ≥ 50% |
| CN1CC[C@H](Oc2ccnc(NCc3c(-c4ccc(F)cc4)nc4ccc(Cl)cn34)n2)C1 [Compound 184, (S)—N-((6-chloro-2-(4-fluorophenyl)imidazo[1,2-a]pyridin-3-yl)methyl)-4-(1-methylpyrrolidin-3-yloxy)pyrimidin-2-amine] | – | ++ (percentage of inhibition of central BZD site binding is greater than 80% in the presence of 1000 nM of the compound) | – | 10 to 50% | 10 to 50% |
| Clc1ccc2nc(-c3ccccc3)c(Cn3nnc4ccccc43)n2c1 [Compound 46, 1-((6-chloro-2-phenylH-imidazo[1,2-a]pyridin-3-yl)methyl)-1H-benzo[d][1,2,3]triazole] | 0 (percentage of potentiation is between about 10% to about −10%) | ++ (percentage of inhibition of central BZD site binding is greater than 80% in the presence of 1000 nM of the compound) | + (percentage of potentiation is greater than or equal to 10% but less than 50% in the presence of 100 nM of the compound) | – | – |
| Clc1ccc(-c2nc3ccccn3c2Cn2nc3ccccc3n2)cc1 [Compound 43, 2-((2-(4-chlorophenyl)H-imidazo[1,2-a]pyridin-3-yl)methyl)-2H-benzo[d][1,2,3]triazole] | + (percentage of potentiation is greater than or equal to 10% but less than 50% in the presence of 100 nM of the compound) | ++ (percentage of inhibition of central BZD site binding is greater than 80% in the presence of 1000 nM of the compound) | 0 (percentage of potentiation is between about 10% to about −10%) | – | – |
| Cc1cc(Cl)nc(NCc2c(-c3ccc(Cl)cc3)nc3ccccn23)n1 [Compound 159, 4-chloro-N-((2-(4-chlorophenyl)imidazo[1,2-a]pyridin-3-yl)methyl)-6-methylpyrimidin-2-amine] | – | ++ (percentage of inhibition of central BZD site binding is greater than 80% in the presence of 1000 nM of the compound) | – | 10 to 50% | 10 to 50% |
| Fc1ccc2nc(-c3ccc(Cl)cc3)c(Cn3nc4ccccc4n3)n2c1 [Compound 59, 2-((2-(4-chlorophenyl)-6-fluoroH-imidazo[1,2-a]pyridin-3-yl)methyl)-2H-benzo[d][1,2,3]triazole] | 0 (percentage of potentiation is between about 10% to about −10%) | + (percentage of inhibition of central BZD site binding is greater than 50% but less than 80% in the presence of 1000 nM of the compound) | 0 (percentage of potentiation is between about 10% to about −10%) | – | – |
| OC1CCN(c2ccnc(NCc3c(-c4ccc(F)cc4)nc4ccc(Cl)cn34)n2)C1 (stereo not drawn) [Compound 189, 1-(2-((6-chloro-2-(4-fluorophenyl)imidazo[1,2-a]pyridin-3-yl)methylamino)pyrimidin-4-yl)pyrrolidin-3-ol] | – | ++ (percentage of inhibition of central BZD site binding is greater than 80% in the presence of 1000 nM of the compound) | – | ≥ 50% | ≥ 50% |
| O=C1CCN1Cc1c(-c2ccccc2)nc2ccc(Cl)cn12 [Compound 115, 1-(6-Chloro-2-phenyl-imidazo[1,2-a]pyridin-3-ylmethyl)-azetidin-2-one] | – | ++ (percentage of inhibition of central BZD site binding is greater than 80% in the presence of 1000 nM of the compound) | – | 10 to 50% | 10 to 50% |
| Cc1ccc(-c2nc3ccc(C)cn3c2Cn2ccnn2)cc1 [Compound 6, 3-((1H-1,2,3-triazol-1-yl)methyl)-6-methyl-2-p-tolylH-imidazo[1,2-a]pyridine] | + (percentage of potentiation is greater than or equal to 10% but less than 50% in the presence of 100 nM of the compound) | ++ (percentage of inhibition of central BZD site binding is greater than 80% in the presence of 1000 nM of the compound) | + (percentage of potentiation is greater than or equal to 10% but less than 50% in the presence of 100 nM of the compound) | – | – |
| CONC(=O)c1nc(Cc2c(-c3ccc(F)cc3)nc3ccc(F)cn23)no1 [Compound 224, 3-((2-(4-fluorophenyl)-6-fluoroimidazo[1,2-a]pyridin-3-yl)methyl)-N-methyoxy-1,2,4-oxadiazole-5-carboxamide] | + (percentage of potentiation is greater than or equal to 10% but less than 50% in the presence of 100 nM of the compound) | – | 0 (percentage of potentiation is between about 10% to about −10%) | – | – |
| CNC(=O)c1nc(Cc2c(-c3ccc(F)cc3)nc3ccc(F)cn23)no1 [Compound 221, 3-((6-fluoro-2-(4-fluorophenyl)imidazo[1,2-a]pyridin-3-yl)methyl)-N-methyl-1,2,4-oxadiazole-5-carboxamide] | – | – | – | 10 to 50% | -10 to 10% |
| Clc1ccc(-c2nc3ccccn3c2Cn2nnc3ccccc32)cc1 [Compound 42, 1-((2-(4-chlorophenyl)H-imidazo[1,2-a]pyridin-3-yl)methyl)-1H-benzo[d][1,2,3]triazole] | + (percentage of potentiation is greater than or equal to 10% but less than 50% in the presence of 100 nM of the compound) | – | + (percentage of potentiation is greater than or equal to 10% but less than 50% in the presence of 100 nM of the compound) | – | – |
| O=C(NO)c1nc(Cc2c(-c3ccc(Cl)cc3)nc3ccc(F)cn23)no1 [Compound 222, 3-((2-(4-chlorophenyl)-6-fluoroimidazo[1,2-a]pyridin-3-yl)methyl)-N-hydroxy-1,2,4-oxadiazole-5-carboxamide] | – | – | – | ≥ 50% | -10 to 10% |
| O=C(NO)c1nc(Cc2c(-c3ccc(F)cc3)nc3ccc(F)cn23)no1 [Compound 223, 3-((2-(4-fluorophenyl)-6-fluoroimidazo[1,2-a]pyridin-3-yl)methyl)-N-hydroxy-1,2,4-oxadiazole-5-carboxamide] | – | – | – | 10 to 50% | ≤ -10% |
| Cc1ccc(-c2nc3ccc(C)cn3c2CNc2nccnn2)cc1 [Compound 145, (6-Methyl-2-p-tolyl-imidazo[1,2-a]pyridin-3-ylmethyl)-[1,2,4]triazin-3-yl-amine] | – | – | – | 10 to 50% | ≥ 50% |
| COC(=O)c1ncn(Cc2c(-c3ccc(Cl)cc3)nc3ccccn23)n1 [Compound 25, 1-[2-(4-Chloro-phenyl)-imidazo[1,2-a]pyridin-3-ylmethyl]-1H-[1,2,4]triazole-3-carboxylic acid methyl ester] | – | – | – | ≥ 50% | 10 to 50% |
| NNC(=O)c1nc(Cc2c(-c3ccc(Cl)cc3)nc3ccccn23)no1 [Compound 215, 3-((2-(4-chlorophenyl)imidazo[1,2-a]pyridin-3-yl)methyl)-1,2,4-oxadiazole-5-carbohydrazide] | – | – | – | 10 to 50% | -10 to 10% |
| NC(=O)c1nc(Cc2c(-c3ccc(Cl)cc3)nc3ccc(F)cn23)no1 [Compound 217, 3-((2-(4-chlorophenyl)-6-fluoroimidazo[1,2-a]pyridin-3-yl)methyl)-1,2,4-oxadiazole-5-carboxamide] | – | – | – | ≥ 50% | 10 to 50% |
